# Source: patent US20250114335A1, “METHODS AND COMPOSITIONS FOR THE TREATMENT OF EPILEPSY” (ARIZONA BOARD OF REGENTS ON BEHALF OF THE UNIVERSITY OF …, priority 2022, published 2025)
# “And” between values parts separate entries of the source, which are not always exact repeats. Equal entries are not always repeated.
# Key:
# [1] = test system: B6-D/+ (Scn8a-N1768D) adult mice; experiment: Survival and seizure frequency, adult B6-D/+ mice followed for the entire lifespan; format: in vivo, mouse; set-up: reduction in post-onset seizure frequency: concentration or dose not given beside the values; conditions: for observed standard effect size, Kaplan-Meier survival: treated versus untreated
# From the text: (§1) Mouse strains: The C57BL/6J-N1768D congenic mouse (B6-D/+) was used for phenotyping, RNAseq, and BBB studies. In addition, a hybrid strain that was produced by backcross breeding to transfer the Scn8a-N1768D allele from the B6 to the C3H/HeJ strain background was used to further assess the effect of CND on survival and seizure frequency. After constructing an F1 by crossing male B6-D/+ heterozygotes to female C3H/HeJ, five rounds of backcrossing (N6) produced a […] and 98.5% C3H/HeJ-N1768D line (C3H-D/+). Sister-brother mating maintained the 98.5% C3H background. […] C3H-D/D mice have a delayed seizure onset (˜40-45 days) and an extended survival (65-70 days) with intermittent bouts of TCs (FIG. 1A).
# (§2) Phenotyping: Female and male mice on both the B6 and C3H backgrounds were housed in sex-specific groups of 3-4 per cage in a pathogen-free mouse facility with a 14 h light/10 h dark cycle (lights turned on at 5 am). A 24/7 video monitoring system was utilized to collect seizure data, with infrared illumination to monitor behavior during the dark period. Seizures were counted as individual TCs. Adult mice were followed from the age of 6 weeks, a period of time well before seizure onset, in order to identify the day of seizure onset. A seizure bout was defined as a cluster of seizures on consecutive days, and a gap as a seizure-free period of 3 days or more.
# (§3) Preparation of CND suspension for injections and oral dosing: Juvenile B6-D/D and adult B6-D/+ mice were given subcutaneous (s.c.) injections with either CND (2-4 mg/kg/day; doses that fall within the FDA-approved range for CND in both adults and children) or vehicle (VEH) (Sigma-Aldrich) (FIG. 1B). Oral dosing of adults was performed by thoroughly mixing 160 μl of suspension containing 1.28 mg of CND or VEH with 5 g of pure (organic) peanut butter in a petri dish. Mice were given 1 g pellet per mouse each day. Pellets were weighed each day to record the amount consumed, and 24/7 video was used to verify that each mouse was consuming the pellet. An average of 0.79 g (±0.36 g) was consumed by an adult mouse (˜20-25 g), corresponding to 9.1±4.2 mg/kg/day. No correlations were found for the amount of CND consumed and lifetime survival or number of TCs.
# Survival and seizure frequency studies: B6-D/D mice were injected with CND (n=10) or VEH (n=10) at 15 days of age (P15) and followed to monitor TCs by 24/7 video recording until death (FIG. 1B). A separate set of 10 B6-D/D mice was administered a daily s.c. injection of 25 mg/kg/day phenytoin (PHT) suspension or VEH (US Pharmacopeia, Sigma-Aldrich). […] Mice were monitored for seizures by 24/7 video recording until the time of death.
# [2] = test system: C3H-D/D (Scn8a-N1768D) adult mice; experiment: Survival and seizure frequency, adult C3H-D/D mice followed until death; format: in vivo, mouse; conditions: Treated
# From the text: as §1, §2, §3
# Data for the untreated mice were previously reported. Table 1 also provides C3H-D/D summary statistics for female untreated (N=15) and treated (N=15) and male untreated (N=27) and treated (N=16) monitored until the time of death.
smiles,measurement,setting,value
"CCOc1nc2cccc(C(=O)O)c2n1Cc1ccc(-c2ccccc2-c2nnn[nH]2)cc1 [CND, candesartan]","increase in survival, treated versus untreated",[1]; B6-D/+ females,34.7%
same,reduction in post-onset seizure frequency,[1]; B6-D/+ females,88.9%
same,"observed standard effect size, Kaplan-Meier survival",[1]; B6-D/+ females,0.59
same,"increase in survival, treated versus untreated",[1]; B6-D/+ males,48.9%
same,mean days surviving longer than untreated,[1]; B6-D/+ males,44.5 days
same,reduction in post-onset seizure frequency,[1]; B6-D/+ males,56.5% and 59.1%
same,"observed standard effect size, Kaplan-Meier survival",[1]; B6-D/+ males,0.69
same,#Days survived postTC,"[1]; B6 Females (D/+), Treated",76.4 days
same,#TCs,"[1]; B6 Females (D/+), Treated",14.3 TCs
same,#TCs/day (PostTC),"[1]; B6 Females (D/+), Treated",0.24 TCs/day
same,Age at Onset,"[1]; B6 Females (D/+), Treated",91.2 days
same,gap days,"[1]; B6 Females (D/+), Treated",34.0 days
same,mean gap length,"[1]; B6 Females (D/+), Treated",8.3 days
same,Age at Death,"[1]; B6 Females (D/+), Treated, oral from seizure onset",167.6 ± 19.1 days and 167.6 days
same,#gaps (av),"[1]; B6 Females (D/+), Treated, gap = seizure-free period of 3 days or more",4.0
same,#Days survived postTC,"[1]; B6 Males (D/+), Treated Early",16.8 days
same,#TCs,"[1]; B6 Males (D/+), Treated Early",18.9 TCs
same,#TCs/day (PostTC),"[1]; B6 Males (D/+), Treated Early",2.4 TCs/day
same,#gaps (av),"[1]; B6 Males (D/+), Treated Early",2.6
same,Age at Death,"[1]; B6 Males (D/+), Treated Early",121.6 days
same,Age at Onset,"[1]; B6 Males (D/+), Treated Early",99.2 days
same,gap days,"[1]; B6 Males (D/+), Treated Early",15.0 days
same,mean gap length,"[1]; B6 Males (D/+), Treated Early",6.7 days
same,#Days survived postTC,"[1]; B6 Males (D/+), Treated Late",52.7 days
same,#TCs,"[1]; B6 Males (D/+), Treated Late",43.6 TCs
same,#TCs/day (PostTC),"[1]; B6 Males (D/+), Treated Late",1.0 TCs/day
same,#gaps (av),"[1]; B6 Males (D/+), Treated Late",4.0
same,Age at Onset,"[1]; B6 Males (D/+), Treated Late",81.3 days
same,gap days,"[1]; B6 Males (D/+), Treated Late",37.8 days
same,mean gap length,"[1]; B6 Males (D/+), Treated Late",12.4 days
same,Age at Death,"[1]; B6 Males (D/+), Treated Late (oral from seizure onset)",135.8 ± 28.4 days and 135.8 days
same,#Days survived postTC,[2]; C3H Females (D/D),68.9 days
same,#TCs,[2]; C3H Females (D/D),30.1 TCs
same,#TCs/day (PostTC),[2]; C3H Females (D/D),0.51 TCs/day
same,#gaps (av),[2]; C3H Females (D/D),7.5
same,Age at Death,[2]; C3H Females (D/D),117.4 ± 28.0 days and 117.4 days
same,Age at Onset,[2]; C3H Females (D/D),48.5 days
same,gap days,[2]; C3H Females (D/D),44.0 days
same,mean gap length,[2]; C3H Females (D/D),5.8 days
same,#Days survived postTC,[2]; C3H Males (D/D),68.9 days
same,#TCs,[2]; C3H Males (D/D),37.4 TCs
same,#TCs/day (PostTC),[2]; C3H Males (D/D),0.57 TCs/day
same,#gaps (av),[2]; C3H Males (D/D),9.8
same,Age at Death,[2]; C3H Males (D/D),117.1 ± 20.4 days and 117.1 days
same,Age at Onset,[2]; C3H Males (D/D),48.1 ± 5.1 days and 48.1 days
